3 molecules from patent publication US12643867B2, “Compositions and uses thereof” (University of Virginia Patent Foundation, priority 2017, dated 2026) can be followed below.

Assay [1] concerns the target T1, ULK3 (Unc-51-like kinase 3) (Homo sapiens, UniProt Q6PHR2).
T1 construct: Native kinases; endogenous in cells; host or cells: HEK293T soluble proteome
T1 sequence (Q6PHR2 1-472): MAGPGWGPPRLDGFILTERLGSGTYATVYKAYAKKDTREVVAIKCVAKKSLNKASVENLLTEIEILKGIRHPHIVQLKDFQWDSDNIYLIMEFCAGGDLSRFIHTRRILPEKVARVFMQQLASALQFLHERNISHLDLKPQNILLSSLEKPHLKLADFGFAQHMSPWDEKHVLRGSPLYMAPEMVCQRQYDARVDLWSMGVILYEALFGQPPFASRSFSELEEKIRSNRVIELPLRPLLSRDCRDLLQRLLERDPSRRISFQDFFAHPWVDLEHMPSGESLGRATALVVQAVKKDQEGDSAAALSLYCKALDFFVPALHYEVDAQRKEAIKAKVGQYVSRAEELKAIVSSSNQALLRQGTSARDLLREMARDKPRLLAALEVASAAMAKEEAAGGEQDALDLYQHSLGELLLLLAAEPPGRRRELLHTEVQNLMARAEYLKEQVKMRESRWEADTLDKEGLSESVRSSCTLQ
Briefly: SILAC LC-MS ATP acyl phosphate probe competition, native kinases in HEK293T. To be noted: site Lys1; ATP 1 mM; Ketanserin, Ritanserin 100 μM; RF001 1 mM. The assay is classed as binding. Put shortly: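 Light and heavy SILAC HEK293T proteomes (2 mg/ml in kinase buffer) were pre-treated with DMSO or compound (50× stock in DMSO) for 30 min at 25° C, then mixed 1:1, reduced, alkylated and digested with trypsin/Lys-C. Desthiobiotin-labelled peptides were avidin-enriched and analysed by LC-MS/MS on an Orbitrap, top-10 data-dependent acquisition.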

For assay [2], the system named is M3K2/M3K3 (Mitogen-activated protein kinase kinase kinase 2). The assay is described as above. In kind it is binding, Homo sapiens. The following applies: site Lys2; ATP 1 mM; Ketanserin, Ritanserin 100 μM; RF001 1 mM. How it is done: Proteomes were diluted to 2 mg/ml in kinase buffer. The light and heavy proteomes (0.5 mg, 250 μL total reaction volume) were pre-treated with vehicle or compound, respectively (5 μL, DMSO (light) or 50× stock in DMSO (heavy)), mixed gently, and incubated at 25° C. for 30 min. […] After incubation, matched light and heavy proteomes were transferred and mixed in a 1:1 ratio in a two-dram vial containing 4:1:3 MeOH/CHCl3/H2O (2 mL MeOH, 500 AL CHCl3, 1.5 mL H2O) for extraction of proteins to remove excess probe, quickly vortexed, and centrifuged at 1,400×g for 3 min to pellet protein. Organic and aqueous layers were removed using a Pasteur pipette, and the protein pellet was transferred to a screw-top tube in 600 μL MeOH. A second extraction was performed by adding CHCl3 (150 μL) and H2O (600 μL) to each sample, vortexed, and centrifuged at 1,400×g for 3 min to pellet protein. Organic and aqueous layers were removed by pipetting. MeOH added to pellet (600 μL) and pellets were re-suspended by sonication (3×1 sec pulse, 20% amplitude) for a final extraction. Samples were then centrifuged at 17,000×g for 5 min to pellet protein and MeOH was removed by pipetting. The pellets were re-suspended in 10 M urea/25 mM ammonium bicarbonate ([…]), brought to a final volume of 1 mL with 25 mM ammonium bicarbonate, reduced with 10 mM DTT for 15 min at 65° C. allowed to cool, and then alkylated with 40 mM iodoacetamide for 30 min at 25° C. in the dark. To desalt the samples, each was transferred to a two-dram glass vial, and to the vial 4:1:2 MeOH/CHCl3/H2O (2 mL MeOH, 500 AL CHCl3, 1 mL H2O) was added. The vials were vortexed quickly, spun at 1.400×g for 3 min to pellet protein, and aqueous and organic layers were removed using a Pasteur pipette. The resulting protein pellet was transferred to a screw-top tube in 600 μL MeOH, and then CHCl3 (150 μL) and HO (600 μL) were added to extract protein a second time. […]
The peptide samples were analyzed by liquid chromatography-mass spectrometry. […]

With `Cc1nc2sccn2c(=O)c1CCN1CCC(=C(c2ccc(F)cc2)c2ccc(F)cc2)CC1` [Ritanserin], the “SILAC ratio, ULK3 probe-modified peptide” value in assay [1] is listed as 1.8. Further, in assay [2], the “SILAC ratio, M3K2/M3K3 probe-modified peptide” value worked out at 1.2.

Take `Fc1ccc(C(=C2CCNCC2)c2ccc(F)cc2)cc1` [RF001, 4-(Bis(4-fluorophenyl)methylene) piperidine]: in assay [1], the “SILAC ratio, ULK3 probe-modified peptide” value stood at 1.4. The “SILAC ratio, M3K2/M3K3 probe-modified peptide” value in assay [2] stood at 1.0.

As to `O=C(c1ccc(F)cc1)C1CCN(CCn2c(=O)[nH]c3ccccc3c2=O)CC1` [Ketanserin], in assay [1], the “SILAC ratio, ULK3 probe-modified peptide” value came to 2.3. Further, the “SILAC ratio, M3K2/M3K3 probe-modified peptide” value in assay [2] is given as 1.1.
